Laboratory results: patent US11795195B2, “Antibody-drug conjugates including hemiasterlin derivative” (Sumitomo Pharma Co., Ltd., priority 2017, dated 2023)

What was measured:
Karpas-299 cells [1] = test: Cellular Toxicity Test (1), CellTiter-Glo cell viability; assay type: cell-based, human; conditions: for IC50: Homo sapiens, 96 h, cultured 4 days, cell viability
Description: Karpas-299 cells (European Collection of Authenticated Cell Cultures, hereinafter, ECACC), which are human lymphoma cell lines, were cultured in RPMI 1640 (GIBCO) containing 10% fetal bovine serum (MP Biomedicals) (hereinafter, referred to as the “culture medium”). Cells were prepared to be 2×10^6 cells/mL in the culture medium, and were added to a 96 well microplate for cell culturing in an amount of 50 μL for each well. Compounds of Examples or Comparative Example compound 4 times diluted with the culture medium in 8 stages were added to the microplate in an amount of 50 μL for each well. These were cultured at 37 degree under 5% CO2 for 4 days. After culturing, the microplate was taken out from the incubator, and was left at rest at room temperature for 10 minutes. To each well, 50 μL of CellTiter-Glo Luminescent Cell Viability Assay (Promega) was added, and the resultant mixture was stirred. This mixture was incubated at a dark place for 20 minutes. Using a microplate luminometer, luminescence at each well was measured, thereby calculating the cell viability. In addition, from the value of cell viability, the IC50 value was calculated.
The IC50 value was calculated by the following formula: IC50 (nM)=antilog(LOG10(a/b)×(e−d)/(c−d)+LOG10b) a: concentration a of test substance b: concentration b of test substance c: cell viability upon adding test substance with concentration a d: cell viability upon adding test substance with concentration b e: intermediate value between maximum and minimum among cell viabilities upon adding test substances with different concentrations (a and b are concentrations crossing the cell viability e, and a>b is indicated).
The cell viability at each concentration was calculated by the following formula: Cell Viability (%)=a′/b′×100 a′: mean value of luminescence amount of wells to which test substance was added (n=6) b′: mean value of luminescence amount of wells to which test substance was not added (n=6) (n represents the number of evaluations performed per test substance concentration).

SK-BR-3 cells = test: Cellular Toxicity Test (2), CellTiter-Glo cell viability; assay type: cell-based, human; conditions: for IC50: Homo sapiens, 72 h, cultured 3 days, cell viability
Description: SK-BR-3 cells (ATCC), which are human breast cancer cell line, were cultured in McCoy's 5A (GIBCO) containing 10% fetal bovine serum (MP Biomedicals) (hereinafter, referred to as the “culture medium” in this test). SK-BR-3 cells were prepared to be 2×10^6 cells/mL in the culture medium, added to a 96 well microplate for cell culturing in an amount of 50 μL for each well, and cultured at 37 degree under 5% CO2 overnight, and then, compounds of Examples or Comparative Example compound 4 times diluted with the culture medium in 8 stages were added to the microplate in an amount of 50 μL for each well. These were cultured at 37 degree under 5% CO2 for 3 days. After culturing, the microplate was taken out from the incubator, and was left at rest at room temperature for 10 minutes. 50 μL of CellTiter-Glo Luminescent Cell Viability Assay (Promega) was added to each well, and the resultant mixture was stirred. This mixture was incubated at a dark place for 20 minutes. Using a microplate luminometer, luminescence at each well was measured, thereby calculating the cell viability. The IC50 value was calculated in accordance with the method described in Test Example 1.

[2] = Membrane Permeability Test, parallel artificial membrane permeability assay (PAMPA); assay type: in vitro ADME; conditions: pH 7.4, pH7.4, 37° C., read-out: Pe (pH7.4)
Description: By the parallel artificial membrane permeability assay (PAMPA), the membrane permeability of compounds of Examples was examined as follows: To the donor plate, System solution (pION inc.) and GIT Lipid-0 (pION inc.) were added in an amount of 200 μL and 4 μL for each well, respectively. To the acceptor plate, Acceptor Sink Buffer (pION inc.) was added in an amount of 200 μL. Both plates were superposed and incubated at 37° C. for 4 hours, and then, UVs in the solutions on the side of acceptor and on the side of donor were measured with an UV plate reader (190 to 500 nm). Compounds with poor UV absorption were measured by LC-MS. The permeability coefficient Pe (10^−6 cm/sec) of the drug was calculated by the following formula.
[formula] • ra=(VD/VA)Pa^(A-D)/Pa^(D-A)=rVPe^(A-D)/Pa^(D-A) • rV=(VD/VA) • VD=volume of doner well • VA=volume of acceptor well • t=permeation time • τ^SS=steady state time • R=retention • CD=CA=concentration in donor and acceptor well

Karpas-299 cells [3] = test: Cellular Toxicity Test (1) for ADCs; assay type: cell-based, human; conditions: Karpas-299 (CD30 antigen-positive, HER2 antigen-negative cell line), 4 days
Description: Karpas-299 cells (ECACC), which are CD30 antigen-positive and HER2 antigen-negative, were cultured in RPMI 1640 (GIBCO) containing 10% fetal bovine serum (MP Biomedicals) (hereinafter, referred to as “culture medium A” in this test). In addition, SK-BR-3 cells (ATCC), which are CD30 antigen-negative and HER2 antigen-positive, were cultured in McCoy's 5A (GIBCO) containing 10% fetal bovine serum (MP Biomedicals) (hereinafter, referred to as “culture medium B” in this test). Karpas-299 cells and SK-BR-3 cells were prepared to be 2×10^6 cells/mL in culture medium A or culture medium B, and were added to a 96 well microplate for cell culturing in an amount of 50 μL for each well. After the addition, SK-BR-3 cells were cultured at 37 degree under 5% CO2 overnight. ADCs 4 times diluted with culture medium A or culture medium B in 8 stages were added to the microplate in an amount of 50 μL for each well, and Karpas-299 cells and SK-BR-3 cells were cultured at 37 degree under 5% CO2 for 4 days or 3 days, respectively. After culturing, the microplate was taken out from the incubator, and was left at rest at room temperature for 10 minutes. […] Using a microplate luminometer, luminescence was measured, thereby calculating the cell viability for each concentration of the ADC. The IC50 value was calculated in accordance with the method described in Test Example 1.

Karpas-299 cells [4] = test: Cellular Toxicity Test (2) for ADCs, cell survival relative to brentuximab; assay type: cell-based, human; conditions: Karpas-299, 2000 ng/mL solution added, 4 days, relative to cells surviving brentuximab treatment
Description: Karpas-299 cells were prepared to be 2×10^6 cells/mL in culture medium A, and were added to a 96 well microplate for cell culturing in an amount of 50 μL for each well. Brentuximab or Example ADCs, the concentration of which was prepared to be 2000 ng/mL with culture medium A, was added to the microplate in an amount of 50 μL for each well, and cultured at 37 degree under 5% CO2 for 4 days. After culturing, the microplate was taken out from the incubator, and was left at rest at room temperature for 10 minutes. To each well, 50 μL of CellTiter-Glo Luminescent Cell Viability Assay (Promega) was added, and the resultant mixture was stirred. This mixture was incubated at a dark place for 20 minutes, and luminescence was measured using a microplate luminometer, thereby determining the percentage of the number of cells that survived upon the treatment with Example ADCs relative to the number of cells that survived upon the treatment with brentuximab.

Molecule | IC50 (Karpas-299 cells [1]) [nM] | Papp at 4 h [2] [×10⁻⁶ cm/s] | also measured
CN[C@H](C(=O)N[C@H](C(=O)N(C)[C@H](/C=C(\C)C(=O)NCCCCNC(=O)CCCCCN1C(=O)C=CC1=O)C(C)C)C(C)(C)C)C(C)(C)c1cn(C)c2ccccc12 [Comparative Example compound, reference compound] | 19.1 | 16.9 | cellular toxicity to Karpas-299 cells (in words) (Karpas-299 cells [1]): strong cellular toxicity; cellular toxicity to SK-BR-3 cells (in words) (SK-BR-3 cells): strong cellular toxicity; IC50 (SK-BR-3 cells): 162 nM
Comparative Example 1: Brentuximab, a CD30 antigen-specific antibody, no modifying agent, average DAR 0 |  |  | IC50 (Karpas-299 cells [3]): > 6.6 nM; Cell survival rate (%) (Karpas-299 cells [4]): 100%
CN[C@H](C(=O)N[C@H](C(=O)N(C)[C@H](/C=C(\C)C(=O)N[C@H](CCC(=O)O)C(=O)NCCN1C(=O)C=CC1=O)C(C)C)C(C)(C)C)C(C)(C)c1cn(C)c2ccccc12 [Example M25] | 140 | < 0.1 | 
CN[C@H](C(=O)N[C@H](C(=O)N(C)[C@H](/C=C(\C)C(=O)N[C@@H](CCC(=O)O)C(=O)NCCN1C(=O)C=CC1=O)C(C)C)C(C)(C)C)C(C)(C)c1cn(C)c2ccccc12 [Example M22] | 154 | < 0.1 | 
CN[C@H](C(=O)N[C@H](C(=O)N(C)[C@H](/C=C(\C)C(=O)N[C@H](CCC(=O)NCCN1C(=O)C=CC1=O)C(=O)O)C(C)C)C(C)(C)C)C(C)(C)c1cccs1 [Example M39] | 379 | < 0.1 | 
CN[C@H](C(=O)N[C@H](C(=O)N(C)[C@H](/C=C(\C)C(=O)N[C@@H](CC(=O)O)C(=O)NCCN1C(=O)C=CC1=O)C(C)C)C(C)(C)C)C(C)(C)c1cn(C)c2ccccc12 [Example M21] | 226 | < 0.1 | 
CN[C@@H](C(=O)N[C@H](C(=O)N(C)[C@H](/C=C(\C)C(=O)N[C@H](CCC(=O)NCCN1C(=O)C=CC1=O)C(=O)O)C(C)C)C(C)(C)C)C(C)(C)c1cccc(Br)c1 [Example M45] | 189 | 4 | 
CN[C@H](C(=O)N[C@H](C(=O)N(C)[C@H](/C=C(\C)C(=O)N[C@H](CCC(=O)NCCN1C(=O)C=CC1=O)C(=O)O)C(C)C)C(C)(C)C)C(C)(C)c1cccc(C(F)(F)F)c1 [Example M31] | 197 | 1 | 
CN[C@H](C(=O)N[C@H](C(=O)N(C)[C@H](/C=C(\C)C(=O)N[C@H](CCC(=O)N[C@@H](CCCCNC(=O)CCN1C(=O)C=CC1=O)C(=O)O)C(=O)O)C(C)C)C(C)(C)C)C(C)(C)c1cn(C)c2ccc(F)cc12 [Example M26] | 80.1 | < 0.1 | 
CN[C@H](C(=O)N[C@H](C(=O)N(C)[C@H](/C=C(\C)C(=O)N[C@H](CCC(=O)NCCCN1C(=O)C=CC1=O)C(=O)O)C(C)C)C(C)(C)C)C(C)(C)c1cn(C)c2ccccc12 [Example M23] | 49.7 | < 0.1 | 
C/C(=C\[C@H](C(C)C)N(C)C(=O)[C@@H](NC(=O)[C@H]1CCCCN1C(=O)CCN1C(=O)C=CC1=O)C(C)(C)C)C(=O)N[C@H](CCC(=O)O)C(=O)O [Example M29] | > 1000 | < 0.1 | 
CN[C@H](C(=O)N[C@H](C(=O)N(C)[C@H](/C=C(\C)C(=O)N[C@H](CCC(=O)NCCN1C(=O)C=CC1=O)C(=O)O)C(C)C)C(C)(C)C)C(C)(C)c1cccc(Br)c1 [Example M44] | 9.2 | 6.8 | 
C/C(=C\[C@H](C(C)C)N(C)C(=O)[C@@H](NC(=O)[C@H]1CCCCN1C(C)C)C(C)(C)C)C(=O)N[C@H](CCC(=O)NCCN1C(=O)C=CC1=O)C(=O)O [Example M43] | 3.8 | 2 | 
CN[C@H](C(=O)N[C@H](C(=O)N(C)[C@H](/C=C(\C)C(=O)N[C@H](CCC(=O)NCCN1C(=O)C=CC1=O)C(=O)O)C(C)C)C(C)(C)C)C(C)(C)c1cccc(C)c1 [Example M42] | 91.1 | 4.9 | 
CNC(C(=O)N[C@H](C(=O)N(C)[C@H](/C=C(\C)C(=O)N[C@H](CCC(=O)O)C(=O)O)C(C)C)C(C)(C)C)C(C)(C)c1ccc(C(=O)NCCN2C(=O)C=CC2=O)cc1 (stereo partly drawn) [Example M47, ((4S,E)-4-((2 S)-2-(3-(4-((2-(2,5-Dioxo-2,5-dihydro-1H-pyrrol-1-yl)ethyl)carbamoyl)phenyl)-3-methyl-2-(methylamino)butanamido)-N,3,3-trimethylbutanamido)-2,5-dimethylhex-2-enoyl)-D-glutamic Acid] | > 1000 | 1.2 | 
CN[C@H](C(=O)N[C@H](C(=O)N(C)[C@H](/C=C(\C)C(=O)N[C@H](CCC(=O)NCCN1C(=O)C=CC1=O)C(=O)O)C(C)C)C(C)(C)C)C(C)(C)c1cn(C)c2ccccc12 [Example M1, (3S,6S,9S,10E,14R)-6-tert-Butyl-14-(3-{[2-(2,5-dioxo-2,5-dihydro-1H-pyrrol-1-yl)ethyl]amino}-3-oxopropyl)-8,11-dimethyl-3-[2-(1-methyl-1H-indol-3-yl)propan-2-yl]-4,7,12-trioxo-9-(propan-2-yl)-2,5,8,13-tetraazapentadec-10-en-15-oic Acid] | 726 | < 0.1 | IC50 (SK-BR-3 cells): > 1000 nM
